Where a SMILES comes first, the peptide text is derived from it. Bridges are numbered along the chain shown (N, C = ends). [ ]: non-standard residue; d: D form.
Assays:
GPR119 = molecular target: T1, GPR119 (Homo sapiens, UniProt Q8TDV5); test: cell-based; design: species or system recombinant GPCR reporter cell lines; PathHunter beta-arrestin recruitment (beta-galactosidase complementation), chemiluminescence, agonist mode, Eurofins DiscoverX
T1 sequence (Q8TDV5 1-335): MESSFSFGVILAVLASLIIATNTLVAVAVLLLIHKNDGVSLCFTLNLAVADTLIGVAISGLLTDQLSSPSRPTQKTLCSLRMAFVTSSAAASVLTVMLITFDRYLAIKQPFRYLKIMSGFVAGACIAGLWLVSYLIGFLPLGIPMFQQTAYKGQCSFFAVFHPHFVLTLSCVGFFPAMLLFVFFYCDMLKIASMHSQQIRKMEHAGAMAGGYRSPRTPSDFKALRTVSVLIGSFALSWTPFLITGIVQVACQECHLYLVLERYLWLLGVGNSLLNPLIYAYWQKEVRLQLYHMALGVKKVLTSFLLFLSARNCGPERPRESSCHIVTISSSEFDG

PTHR2 = molecular target: T2, PTHR2 (Homo sapiens, UniProt P49190); test: cell-based; design: species or system recombinant GPCR reporter cell lines; PathHunter beta-arrestin recruitment (beta-galactosidase complementation), chemiluminescence, agonist mode, Eurofins DiscoverX
T2 construct: gene PTH2R

[1] = molecular target: T3, urotensin 2 receptor (UTR2) (Homo sapiens, UniProt Q9UKP6); test: PathHunter beta-arrestin recruitment assay in a recombinant reporter cell line, dose-response; format: cell-based
T3 construct: gene UTS2R
T3 sequence (Q9UKP6 1-389): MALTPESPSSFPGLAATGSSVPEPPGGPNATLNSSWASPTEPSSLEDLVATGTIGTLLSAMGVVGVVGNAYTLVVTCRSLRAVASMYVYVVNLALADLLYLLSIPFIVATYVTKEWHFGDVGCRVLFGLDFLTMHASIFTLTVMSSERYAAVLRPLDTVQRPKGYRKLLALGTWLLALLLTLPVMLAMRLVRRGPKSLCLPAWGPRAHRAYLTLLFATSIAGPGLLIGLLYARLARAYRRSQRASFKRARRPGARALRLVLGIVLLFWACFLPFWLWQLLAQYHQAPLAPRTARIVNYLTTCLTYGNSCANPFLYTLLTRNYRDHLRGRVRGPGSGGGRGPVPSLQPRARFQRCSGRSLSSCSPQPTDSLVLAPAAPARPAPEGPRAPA

[2] = molecular target: T4, neuromedin receptor 1 (NMU1R) (Homo sapiens, UniProt Q9HB89); test: as above; format: cell-based
T4 construct: gene NMUR1
T4 sequence (Q9HB89 1-426): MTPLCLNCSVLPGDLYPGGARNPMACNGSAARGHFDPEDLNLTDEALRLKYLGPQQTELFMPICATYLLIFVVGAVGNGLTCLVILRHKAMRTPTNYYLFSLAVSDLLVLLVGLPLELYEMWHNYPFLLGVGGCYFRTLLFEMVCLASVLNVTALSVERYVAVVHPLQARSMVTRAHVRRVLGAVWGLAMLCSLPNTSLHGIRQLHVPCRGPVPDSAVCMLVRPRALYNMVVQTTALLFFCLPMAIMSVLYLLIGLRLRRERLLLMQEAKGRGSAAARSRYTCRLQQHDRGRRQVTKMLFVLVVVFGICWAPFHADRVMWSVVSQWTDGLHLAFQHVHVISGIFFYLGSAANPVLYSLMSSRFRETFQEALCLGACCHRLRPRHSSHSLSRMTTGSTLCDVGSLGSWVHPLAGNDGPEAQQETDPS

GPR109B [3] = molecular target: T5, GPR109B (Homo sapiens, UniProt P49019); test: PathHunter beta-arrestin recruitment assay, dose-response of the known agonist; format: cell-based
T5 construct: gene HCAR3
Excerpt: PathHunter beta-arrestin recruitment assay, dose-response of the known agonist on GPR109B | This previously unknown GPR109B agonist elicited a similar GPCR response to 3-hydroxyoctanoic acid

PTGIR = PTGIR (Homo sapiens, UniProt P43119); test: cell-based; design: species or system recombinant GPCR reporter cell lines; PathHunter beta-arrestin recruitment (beta-galactosidase complementation), chemiluminescence, agonist mode, Eurofins DiscoverX
HRH4 = HRH4 (Homo sapiens, UniProt Q9H3N8); test: PathHunter beta-arrestin recruitment assay in a recombinant reporter cell line, commercial standard, dose-response; format: cell-based
OXER1 = OXER1 (Homo sapiens, UniProt Q8TDS5); test: cell-based; design: species or system recombinant GPCR reporter cell lines; PathHunter beta-arrestin recruitment (beta-galactosidase complementation), chemiluminescence, agonist mode, Eurofins DiscoverX
MRGPRX2 = molecular target: T6, MRGPRX2 (Homo sapiens, UniProt Q96LB1); test: cell-based; design: species or system recombinant GPCR reporter cell lines; PathHunter beta-arrestin recruitment (beta-galactosidase complementation), chemiluminescence, agonist mode, Eurofins DiscoverX
T6 sequence (Q96LB1 1-330): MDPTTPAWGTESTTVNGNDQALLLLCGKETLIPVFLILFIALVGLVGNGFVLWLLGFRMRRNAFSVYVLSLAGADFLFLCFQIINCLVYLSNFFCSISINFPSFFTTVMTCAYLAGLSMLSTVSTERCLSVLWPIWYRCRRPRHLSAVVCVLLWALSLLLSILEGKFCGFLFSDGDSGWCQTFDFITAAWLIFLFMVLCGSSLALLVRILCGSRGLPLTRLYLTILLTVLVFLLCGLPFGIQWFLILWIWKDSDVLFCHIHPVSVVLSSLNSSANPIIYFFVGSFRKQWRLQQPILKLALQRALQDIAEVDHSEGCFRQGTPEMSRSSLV

GPR109B [4] = molecular target: T5, GPR109B; test: PathHunter beta-arrestin recruitment assay in a recombinant reporter cell line, dose-response; format: cell-based
FFAR1 = FFAR1 (Homo sapiens, UniProt O14842); test: cell-based; design: species or system recombinant GPCR reporter cell lines; PathHunter beta-arrestin recruitment (beta-galactosidase complementation), chemiluminescence, agonist mode, Eurofins DiscoverX
KISS1R = KISS1R (Homo sapiens, UniProt Q969F8); test: cell-based; design: species or system recombinant GPCR reporter cell lines; PathHunter beta-arrestin recruitment (beta-galactosidase complementation), chemiluminescence, agonist mode, Eurofins DiscoverX
CRTH2 = molecular target: T7, CRTH2 (Homo sapiens, UniProt Q9Y5Y4); test: cell-based; design: species or system recombinant GPCR reporter cell lines; PathHunter beta-arrestin recruitment (beta-galactosidase complementation), chemiluminescence, agonist mode, Eurofins DiscoverX
T7 construct: gene PTGDR2
T7 sequence (Q9Y5Y4 1-395): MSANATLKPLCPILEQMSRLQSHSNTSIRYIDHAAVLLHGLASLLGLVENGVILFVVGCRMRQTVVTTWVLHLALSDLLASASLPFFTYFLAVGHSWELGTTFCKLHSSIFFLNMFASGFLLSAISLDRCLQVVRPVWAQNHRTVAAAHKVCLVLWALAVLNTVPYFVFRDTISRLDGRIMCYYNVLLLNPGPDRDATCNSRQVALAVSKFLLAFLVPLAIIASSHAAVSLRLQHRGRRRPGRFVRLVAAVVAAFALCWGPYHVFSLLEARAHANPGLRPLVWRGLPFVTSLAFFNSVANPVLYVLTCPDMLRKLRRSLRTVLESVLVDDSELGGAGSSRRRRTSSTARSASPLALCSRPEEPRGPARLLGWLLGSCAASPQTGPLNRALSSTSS

[5] = molecular target: T8, brain angiogenesis factor 1 (BAI1) receptor (Homo sapiens, UniProt O14514); test: PathHunter beta-arrestin recruitment assay in a recombinant reporter cell line, dose-response; format: cell-based
T8 construct: gene ADGRB1

EBI2 = molecular target: T9, EBI2 (Homo sapiens, UniProt P32249); test: cell-based; design: species or system recombinant GPCR reporter cell lines; PathHunter beta-arrestin recruitment (beta-galactosidase complementation), chemiluminescence, agonist mode, Eurofins DiscoverX; details: agonist; read-out: RC50 (the source's name)
T9 construct: gene GPR183
T9 sequence (P32249 whole entry): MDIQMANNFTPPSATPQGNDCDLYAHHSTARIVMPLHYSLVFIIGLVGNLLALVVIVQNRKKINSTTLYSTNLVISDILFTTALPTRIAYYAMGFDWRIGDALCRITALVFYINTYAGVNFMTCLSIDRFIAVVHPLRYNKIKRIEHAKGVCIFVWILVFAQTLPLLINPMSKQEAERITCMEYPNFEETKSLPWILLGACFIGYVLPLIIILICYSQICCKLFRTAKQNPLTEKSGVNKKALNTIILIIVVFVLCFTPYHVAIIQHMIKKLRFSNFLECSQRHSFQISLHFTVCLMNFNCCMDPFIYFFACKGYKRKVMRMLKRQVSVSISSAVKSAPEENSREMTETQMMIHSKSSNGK

T5 sequence (P49019 whole entry): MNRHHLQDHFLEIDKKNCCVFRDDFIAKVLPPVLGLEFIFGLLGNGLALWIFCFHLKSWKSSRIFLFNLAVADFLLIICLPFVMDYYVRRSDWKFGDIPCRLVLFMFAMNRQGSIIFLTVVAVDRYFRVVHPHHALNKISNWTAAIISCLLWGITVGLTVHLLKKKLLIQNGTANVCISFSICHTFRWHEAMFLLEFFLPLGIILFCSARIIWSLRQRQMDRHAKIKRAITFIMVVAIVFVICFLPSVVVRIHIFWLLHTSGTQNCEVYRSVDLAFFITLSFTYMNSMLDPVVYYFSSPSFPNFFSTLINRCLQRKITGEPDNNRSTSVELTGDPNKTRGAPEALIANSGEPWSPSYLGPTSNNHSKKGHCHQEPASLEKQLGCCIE
KISS1R, sequence (Q969F8 whole entry): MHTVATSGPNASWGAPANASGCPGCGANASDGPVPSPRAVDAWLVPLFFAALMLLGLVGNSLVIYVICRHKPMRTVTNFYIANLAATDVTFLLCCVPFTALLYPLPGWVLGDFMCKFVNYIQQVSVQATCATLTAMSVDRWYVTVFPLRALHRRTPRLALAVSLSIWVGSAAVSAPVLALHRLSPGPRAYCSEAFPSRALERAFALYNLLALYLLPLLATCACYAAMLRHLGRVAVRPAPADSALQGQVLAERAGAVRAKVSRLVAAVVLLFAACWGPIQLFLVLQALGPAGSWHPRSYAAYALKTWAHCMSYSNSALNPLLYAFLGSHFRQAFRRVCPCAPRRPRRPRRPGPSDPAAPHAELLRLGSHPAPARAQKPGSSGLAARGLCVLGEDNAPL
HRH4, sequence (Q9H3N8 whole entry): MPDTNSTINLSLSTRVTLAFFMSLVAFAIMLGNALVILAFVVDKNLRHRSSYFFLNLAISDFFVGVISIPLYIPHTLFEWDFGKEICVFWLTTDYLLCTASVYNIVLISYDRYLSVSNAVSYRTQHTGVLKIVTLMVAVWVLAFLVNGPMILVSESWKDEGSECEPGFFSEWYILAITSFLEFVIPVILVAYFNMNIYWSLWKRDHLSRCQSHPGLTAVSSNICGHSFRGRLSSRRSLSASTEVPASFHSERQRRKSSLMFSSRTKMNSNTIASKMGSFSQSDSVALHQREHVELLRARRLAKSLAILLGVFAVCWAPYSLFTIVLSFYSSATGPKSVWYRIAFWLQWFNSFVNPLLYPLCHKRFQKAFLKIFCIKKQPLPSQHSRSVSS
T2 sequence (P49190 whole entry): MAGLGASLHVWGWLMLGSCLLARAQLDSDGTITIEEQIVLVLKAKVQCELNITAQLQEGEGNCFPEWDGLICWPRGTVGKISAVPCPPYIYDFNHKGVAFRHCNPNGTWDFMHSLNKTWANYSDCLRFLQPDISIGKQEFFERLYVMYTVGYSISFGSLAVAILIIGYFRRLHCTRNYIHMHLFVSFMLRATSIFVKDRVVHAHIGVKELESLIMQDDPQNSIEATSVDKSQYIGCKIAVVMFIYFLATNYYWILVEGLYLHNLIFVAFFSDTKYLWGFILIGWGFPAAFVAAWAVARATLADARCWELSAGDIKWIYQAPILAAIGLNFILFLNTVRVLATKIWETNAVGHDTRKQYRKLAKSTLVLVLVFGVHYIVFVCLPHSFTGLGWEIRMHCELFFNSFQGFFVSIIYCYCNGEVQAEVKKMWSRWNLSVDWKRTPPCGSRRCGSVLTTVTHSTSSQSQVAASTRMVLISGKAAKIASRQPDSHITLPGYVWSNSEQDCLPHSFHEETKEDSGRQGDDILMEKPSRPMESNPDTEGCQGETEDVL
PTGIR, sequence (P43119 whole entry): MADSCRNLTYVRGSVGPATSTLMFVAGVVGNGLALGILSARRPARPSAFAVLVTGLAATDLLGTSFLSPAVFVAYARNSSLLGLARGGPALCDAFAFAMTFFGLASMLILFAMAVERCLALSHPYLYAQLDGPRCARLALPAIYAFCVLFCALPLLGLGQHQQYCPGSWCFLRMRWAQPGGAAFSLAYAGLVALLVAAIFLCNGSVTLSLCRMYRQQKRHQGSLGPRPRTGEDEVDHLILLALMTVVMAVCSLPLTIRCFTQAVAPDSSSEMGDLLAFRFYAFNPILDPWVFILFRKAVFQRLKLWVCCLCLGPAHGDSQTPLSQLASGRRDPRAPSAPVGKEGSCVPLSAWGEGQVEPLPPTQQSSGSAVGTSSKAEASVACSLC
OXER1, sequence (Q8TDS5 whole entry): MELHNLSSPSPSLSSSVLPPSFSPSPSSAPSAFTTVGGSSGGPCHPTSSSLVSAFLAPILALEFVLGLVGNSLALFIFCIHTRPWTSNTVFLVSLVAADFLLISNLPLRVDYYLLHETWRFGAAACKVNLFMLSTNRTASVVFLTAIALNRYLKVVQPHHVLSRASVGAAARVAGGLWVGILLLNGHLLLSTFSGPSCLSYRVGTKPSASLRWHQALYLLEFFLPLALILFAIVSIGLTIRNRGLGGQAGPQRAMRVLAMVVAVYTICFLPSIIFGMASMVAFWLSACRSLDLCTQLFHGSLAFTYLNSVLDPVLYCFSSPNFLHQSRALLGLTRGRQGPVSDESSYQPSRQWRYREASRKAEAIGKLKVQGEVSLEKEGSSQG
T8 sequence (O14514 31-1584): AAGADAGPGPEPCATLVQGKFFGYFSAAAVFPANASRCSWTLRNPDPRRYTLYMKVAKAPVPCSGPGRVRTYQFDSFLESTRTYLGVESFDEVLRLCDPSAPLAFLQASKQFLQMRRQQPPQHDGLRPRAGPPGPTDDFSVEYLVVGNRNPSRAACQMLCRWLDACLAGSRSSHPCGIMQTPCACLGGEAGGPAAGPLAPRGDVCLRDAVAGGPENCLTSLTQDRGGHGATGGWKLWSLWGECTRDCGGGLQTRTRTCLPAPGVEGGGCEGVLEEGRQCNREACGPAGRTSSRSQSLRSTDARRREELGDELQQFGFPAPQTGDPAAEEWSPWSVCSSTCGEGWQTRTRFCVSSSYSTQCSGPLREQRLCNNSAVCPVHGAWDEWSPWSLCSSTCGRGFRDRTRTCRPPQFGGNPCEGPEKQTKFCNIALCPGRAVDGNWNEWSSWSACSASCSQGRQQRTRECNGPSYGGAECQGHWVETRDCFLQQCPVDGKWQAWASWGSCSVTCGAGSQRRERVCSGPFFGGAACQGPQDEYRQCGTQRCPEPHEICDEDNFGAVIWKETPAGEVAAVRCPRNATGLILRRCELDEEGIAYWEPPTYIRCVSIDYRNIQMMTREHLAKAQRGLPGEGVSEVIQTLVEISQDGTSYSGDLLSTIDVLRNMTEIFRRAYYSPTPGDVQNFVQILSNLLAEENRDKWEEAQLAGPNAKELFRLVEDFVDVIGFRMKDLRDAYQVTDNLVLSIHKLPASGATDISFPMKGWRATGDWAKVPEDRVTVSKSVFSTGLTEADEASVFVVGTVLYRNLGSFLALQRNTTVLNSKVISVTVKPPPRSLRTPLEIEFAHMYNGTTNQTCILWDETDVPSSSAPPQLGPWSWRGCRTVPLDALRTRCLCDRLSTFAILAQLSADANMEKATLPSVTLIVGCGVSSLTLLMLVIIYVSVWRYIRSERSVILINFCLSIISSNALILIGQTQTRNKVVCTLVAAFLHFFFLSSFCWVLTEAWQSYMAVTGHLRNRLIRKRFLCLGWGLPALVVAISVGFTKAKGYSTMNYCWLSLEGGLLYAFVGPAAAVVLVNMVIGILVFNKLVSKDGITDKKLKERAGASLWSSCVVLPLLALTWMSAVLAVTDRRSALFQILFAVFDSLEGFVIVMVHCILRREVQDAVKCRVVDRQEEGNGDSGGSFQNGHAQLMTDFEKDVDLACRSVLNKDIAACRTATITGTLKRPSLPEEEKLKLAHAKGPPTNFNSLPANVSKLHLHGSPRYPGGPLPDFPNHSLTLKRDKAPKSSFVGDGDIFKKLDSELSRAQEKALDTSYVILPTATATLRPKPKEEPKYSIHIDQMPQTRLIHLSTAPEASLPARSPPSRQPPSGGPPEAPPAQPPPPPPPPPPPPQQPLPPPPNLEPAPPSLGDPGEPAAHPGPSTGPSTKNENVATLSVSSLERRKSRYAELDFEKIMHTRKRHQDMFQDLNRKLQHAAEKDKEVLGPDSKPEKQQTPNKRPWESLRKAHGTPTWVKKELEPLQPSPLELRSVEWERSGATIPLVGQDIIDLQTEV
FFAR1, sequence (O14842 whole entry): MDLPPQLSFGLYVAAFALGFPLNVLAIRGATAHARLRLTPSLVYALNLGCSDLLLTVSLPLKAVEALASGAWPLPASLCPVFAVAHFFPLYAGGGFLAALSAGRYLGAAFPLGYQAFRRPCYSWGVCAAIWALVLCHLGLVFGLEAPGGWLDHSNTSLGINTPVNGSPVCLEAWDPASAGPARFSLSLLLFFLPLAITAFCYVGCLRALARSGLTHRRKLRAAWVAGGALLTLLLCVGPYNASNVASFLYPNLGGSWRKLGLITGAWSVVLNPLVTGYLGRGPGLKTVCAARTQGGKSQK

In the case of CCCCCCCC/C=C\CCCCCCCC(=O)NCCO [Oleoyl Ethanolamide], the EC50 (GPR119) is reported as 1.74 µM.

With CCCCC#CCCCCCCCC(=O)OC [TIP-39] the EC50 (PTHR2) was 0.000849 µM.

With CCC(C)CCCCCCCCCCC(=O)O (stereo not drawn) [aiC15:0, 12-methyltetradecanoic acid] the EC50 [1] was 191 µM and the EC50 [2] was 125 µM.

Compound CCCCCC(O)CC(=O)O (stereo not drawn) [3-hydroxyoctanoic acid] has an EC50 (GPR109B [3]) of 304 µM.

For CC#CCC(C)[C@H](O)/C=C/[C@@H]1[C@H]2c3cccc(CCCC(=O)O)c3O[C@H]2C[C@H]1O (mixture of isomers) [Beraprost], the EC50 (PTGIR) was 0.311 µM.

With NCCCCCN [cadaverine] the EC50 (HRH4) was 1.1 µM.

For CCCCC/C=C\C/C=C\C/C=C\C=C\C(=O)CCCC(=O)O [5-OxoETE], the EC50 (OXER1) was 0.693 µM.

For C[C@@H](O)[C@@H]1NC(=O)[C@@H](CCCCN)NC(=O)[C@H](Cc2c[nH]c3ccccc23)NC(=O)[C@H](Cc2ccccc2)NC(=O)[C@H](Cc2ccccc2)NC(=O)[C@H](CC(N)=O)NC(=O)[C@H](CCCCN)NC(=O)[C@@H](NC(=O)[C@@H]2CCCN2)CSSC[C@@H](C(=O)N[C@@H](CCCCN)C(=O)O)NC(=O)[C@H](CO)NC(=O)[C@H](CO)NC(=O)[C@@H](Cc2ccccc2)NC1=O [Cortistatin 14] (H-PCKNFFW[dK]T[dF]SSCK-OH; disulfide 2-13), the EC50 (MRGPRX2) was 0.635 µM.

With O=C(O)CCc1ccccc1 [phenylpropanoic acid] the EC50 (GPR109B [4]) was 208 µM.

Compound O=C(O)CCc1ccc(NCc2cccc(Oc3ccccc3)c2)cc1 [GW9508] has an EC50 (FFAR1) of 0.288 µM.

CC(C)C[C@H](NC(=O)CNC(=O)[C@H](Cc1ccccc1)NC(=O)[C@H](CO)NC(=O)[C@H](CC(N)=O)NC(=O)[C@H](Cc1c[nH]c2ccccc12)NC(=O)[C@H](CC(N)=O)NC(=O)[C@@H](N)Cc1ccc(O)cc1)C(=O)N[C@@H](CCCNC(=N)N)C(=O)N[C@@H](Cc1ccccc1)C(N)=O [Kisspeptin-10] gave an EC50 (KISS1R) of 0.0117 µM.

With CCCCC[C@H](O)/C=C/[C@H]1C(=O)C[C@H](O)[C@@H]1C/C=C\CCCC(=O)O [PGD2] the EC50 (CRTH2) was 0.0193 µM.

CCCCCCC1CC1CCCCCCCC(=O)O (stereo not drawn) [9,10-methylenehexadecanoic acid, cis-9,10-methylenehexadecanoic acid] showed an EC50 [5] of 11 µM.

C[C@H](CCCC(C)(C)O)[C@H]1CC[C@H]2[C@@H]3[C@H](O)C=C4C[C@@H](O)CC[C@]4(C)[C@H]3CC[C@]12C [7a,25-Dihydroxycholesterol] gave an EC50 (EBI2) of 0.191 µM.

From PMC6706627, “Mapping Interactions of Microbial Metabolites with Human G-Protein-Coupled Receptors” (Cell Host & Microbe, 2019)
